# US20140187505A1, “Cardiac Glycosides to Treat Cystic Fibrosis and Other IL-8 Dependent Disorders” (priority 2002, published 2014)
# pIC50: −log10 of the molar value. Several values for one entry are separate records, joined by “and”; a condition that tells them apart may be missing. Identical values can stand only once. Like-named read-outs stand apart in the source and are kept apart here.
# Legend:
# [1] = mobile phase: methanol/water 30:70; cited from earlier work
# [2] = system: Cystic Fibrosis IB-3 Lung Epithelial Cells; assay: Secretion of proinflammatory mediators from IB-3 cells (ELISA, 24 hours); type: cell-based; settings: Homo sapiens, Epithelial cell
# [3] = system: HeLa cervical cancer cells; assay: cells; settings: Homo sapiens, 24 h, read-out: IC50 dose for cell death
# [4] = system: Human castration-resistant prostate cancer PC3 cells; assay: EMT protein expression in PC3 cells (Western blot); type: cell-based; settings: 24 hours, vehicle 100%
# [5] = system: collagen induced arthritis (CIA) mice; settings: mouse, in vivo
# [6] = system: PAIII Castration Resistant Prostate Cancer cells; set-up: species or system Lobund-Wistar rats; settings: rat, in vivo
# [7] = octanol/water (20 mM TRIS-HCl, pH 7.4), cited from earlier work
# [8] = system: rat lungs infected with influenza; assay: Cytokines and chemokines in lungs of influenza-infected cotton rats; type: in vivo; settings: 3, 10 or 30 microgram/kg ip daily, lung harvested day 4
# Description: Fifteen standard cotton rats were divided into five groups of three each. […] The rats in the treatment groups were pre-treated on the preceding day with either 3, 10, or 30 micro-g/kg intraperitoneally. […] Each rat was then treated on Day 1 with 100 microliters of Wuhan Strain influenza virus (titer-10^8 TC-IC 50/ml) (IC is […]) by intra-nasal administration to induce lung inflammation.
# The rats were sacrificed on the last day 4 hrs after treatment.
# Pieces of lung was harvested on day 4 and homogenized in PBS by glass-on-glass homogenizer in 1 gram/ml. Samples are frozen on dry ice, and then transferred to −80° C. for analysis. […] Rodents lack IL-8 and instead have GRO/KC and MIP-2. […] GM-CSF was undetectable in the tissue under any conditions.
# [9] = system: IL-8 secretion from cystic fibrosis lung epithelial IB3-1 cells; settings: Homo sapiens, IB3-1, 48 h
# [10] = system: rat PAIII castration-resistant prostate cancer cells; assay: MicroRNA expression in cultured PAIII cells (TaqMan, DDCt); type: cell-based; settings: 6 nM Digitoxin, 24 hours
# [11] = system: clear cell renal carcinoma metastatic to the brain and spinal cord; settings: human, in vivo
# [12] = system: PAIII cancer cells; set-up: species or system Lobund-Wistar rats; settings: rat, in vivo
# [13] = system: rat PAIII castration resistant prostate cancer cells; assay: EMT mRNA expression in cultured PAIII cells (FPKM); settings: 6 nM Digitoxin, 24 hours
# [14] = eluent acetonitrile/water 45:55; cited from earlier work
# [15] = system: TNFa/NFkB signaling pathway; assay: Reverse Phase Protein Microarrays of TNFa/NFkB pathway phosphorylation in IB3-1 cells; type: cell-based, human; settings: IC-90 concentrations
# Excerpt: Previously published data have implicated a dysfunctional TNFa/NFkB signaling pathway as responsible for the pro-inflammatory phenotype of the CF lung (Eidelman et al, 2001a). […] IC-90 means a concentration of drug that blocks 90% of IL-8 secretion from the IB3-1 cells. […] (See FIG. 1).
# [16] = system: HeLa cervical cancer cells; settings: human
# [17] = system: IL-6 and CINC1 (rat IL-8 equivalent); assay: Serum IL-6 and CINC1 in rats bearing PAIII tumors; type: in vivo; settings: digitoxin 0.03 mg/kg daily for 30 days, serum day 30
# [18] = for 70 kg man, cited from earlier work
# [19] = system: guinea-pig heart Na^+-K^+-ATPase; settings: cited from earlier work
structure (smiles),measurement,setting,value
C[C@H]1O[C@@H](O[C@H]2[C@@H](O)C[C@H](O[C@H]3[C@@H](O)C[C@H](O[C@H]4CC[C@@]5(C)[C@H](CC[C@@H]6[C@@H]5CC[C@]5(C)[C@@H](C7=CC(=O)OC7)CC[C@]65O)C4)O[C@@H]3C)O[C@@H]2C)C[C@H](O)[C@@H]1O [digitoxin],"RM values (lipophilicity, reversed-phase thin layer chromatography)",[1],1.37
same,activity at 0.01 µM,"[2]; read-out: ICAM1 secretion, % of Control",19%
same,activity at 0.03 µM,"[2]; read-out: ICAM1 secretion, % of control",30%
same,activity at 0.01 µM,"[2]; read-out: IFN-gamma secretion, % of Control",100%
same,activity at 0.03 µM,"[2]; read-out: IFN-gamma secretion, % of control",35%
same,activity at 0.01 µM,"[2]; read-out: IL-1-beta secretion, % of Control",50%
same,activity at 0.03 µM,"[2]; read-out: IL-1-beta secretion, % of control",50%
same,activity at 0.01 µM,"[2]; read-out: IL-6 secretion, % of Control",3%
same,activity at 0.03 µM,"[2]; read-out: IL-6 secretion, % of control",0%
same,activity at 0.01 µM,"[2]; read-out: IL-8 secretion, % of Control",2%
same,activity at 0.03 µM,"[2]; read-out: IL-8 secretion, % of control",0%
same,activity at 0.01 µM,"[2]; read-out: IP-10 secretion, % of Control",100%
same,activity at 0.03 µM,"[2]; read-out: IP-10 secretion, % of control",100%
same,activity at 0.01 µM,"[2]; read-out: TNFalpha secretion, % of Control",5%
same,activity at 0.03 µM,"[2]; read-out: TNFalpha secretion, % of control",0%
same,pIC50,[3],~6.70
same,E-Cadherin % Band Intensity,[4]; Digitoxin 10 nM,"0%,"
same,SNAI1 % Band Intensity,[4]; Digitoxin 10 nM,"0%,"
same,Vimentin % Band Intensity,[4]; Digitoxin 10 nM,"0%,"
same,E-Cadherin % Band Intensity,[4]; Digitoxin 25 nM,"0%,"
same,SNAI1 % Band Intensity,[4]; Digitoxin 25 nM,"0%,"
same,Vimentin % Band Intensity,[4]; Digitoxin 25 nM,"0%,"
same,Incidence of CIA (mice that developed symptoms),[5],50%
same,"Inflammatory focus (pannus-like) in metatarsal-phalangeal joints, histopathology",[5],absent
same,Mean paw thickness,[5],decreased
same,Severity of CIA (mean visual score),[5],significant reduction
same,"Diameter of metastasis, mm (median)",[6],0.87 mm
same,Number of Pleural Metastases (median),[6],16
same,"Weight of Primary Tumor, gm (median)",[6],19.6 gm
same,P (partition coefficient in octanol/water system),[7],670 and 680
same,P (partition coefficient in octanol/water system),[7]; listed as Digitoxin,670.0 ± 105.0
same,GRO/KC in lung,[8],significant reductions
same,IFNγ in lung,[8],significant reductions
same,IL-13 in lung,[8],No significant changes
same,MCP-1 in lung,[8],significant reductions
same,MIP-2 in lung,[8],significant reductions
same,TGFβ in lung,[8],No significant changes
same,TNFa in lung,[8],significant reductions
same,pIC50,[9]; read-out: IC50 nmol/L in cells,9.05
same,pIC50,[9]; read-out: IC50 (K50) for spontaneous IL-8 secretion,~9.05
same,"miR467b DDCt, Digitoxin - Vehicle",[10],20.10
same,"miR-122 DDCt, Digitoxin - Vehicle",[10],11.005
same,"miR-291a-3p DDCt, Digitoxin - Vehicle",[10],19.13
same,"miR-347 DDCt, Digitoxin - Vehicle",[10],4.34
same,"miR-376a DDCt, Digitoxin - Vehicle",[10],−32.75(↑)
same,"miR-380-3p DDCt, Digitoxin - Vehicle",[10],16.57
same,"miR-411 DDCt, Digitoxin - Vehicle",[10],4.61
same,"miR-667 DDCt, Digitoxin - Vehicle",[10],7.01
same,"miR-670 DDCt, Digitoxin - Vehicle",[10],−12.11(↑)
same,"miR-879 DDCt, Digitoxin - Vehicle",[10],11.31
same,Clinical outcome of one cancer patient,[11],positive result
same,"Diameter of metastatic foci, mm, (median)",[12],1.76 mm
same,Number of pleural metastatic foci (median),[12],122
same,FOXP3 mRNA % change,[13],−30%
same,Hepatocyte Growth Factor mRNA % change,[13],−50%
same,Igf2r mRNA % change,[13],−40%
same,Vimentin mRNA % change,[13],−10%
same,Zeb2 mRNA % change,[13],−30%
same,K retentions for reversed-phase high pressure liquid chromatography,[14],3.34
same,"Constitutive phosphorylation of IkBalpha and NFkB, p65",[15],significantly suppressed
same,Phosphorylation of IKKalpha,[15],modestly suppressed
same,Threshold concentration for an increase in cell death,[16],70 to 100 nM
same,Serum Interleukin-6 (IL-6),[17]; control 47.9 ± 14.1,37.0 ± 16.9 pg/mL
same,Serum CINC1/KC (rat IL-8 equivalent),[17]; control 60.32 ± 20.6,47.9 ± 14.4 pg/mL
same,Human toxicity limit,[18],3036 nmol
same,"Human toxicity limit, Nmol/L = nM",[18],45.4 nM
same,Human toxicity limit,[18]; ouabain value is lethal dose,>2.5 mg
same,ID50,[19],0.31 ± 0.03 ×10^−4 mol l^−1
